# Measurements from patent EP2809669B1, “FUSED PYRROLEDICARBOXAMIDES AND THEIR USE AS PHARMACEUTICALS” (SANOFI, priority 2012, dated 2013).
# Where two headings read alike, the source gives them in different places.
# What was measured:
# hERG channel = biological target: T1, hERG channel (Homo sapiens, UniProt Q12809); assay: Determination of the effect on the hERG channel in CHO cells (whole-cell patch clamp); format: cell-based; conditions: CHO cells stably expressing hERG, room temperature, read-out: IC50 value [µM] for hERG inhibition
# T1 construct: expressed in transfected cells
# T1 sequence (Q12809 whole entry): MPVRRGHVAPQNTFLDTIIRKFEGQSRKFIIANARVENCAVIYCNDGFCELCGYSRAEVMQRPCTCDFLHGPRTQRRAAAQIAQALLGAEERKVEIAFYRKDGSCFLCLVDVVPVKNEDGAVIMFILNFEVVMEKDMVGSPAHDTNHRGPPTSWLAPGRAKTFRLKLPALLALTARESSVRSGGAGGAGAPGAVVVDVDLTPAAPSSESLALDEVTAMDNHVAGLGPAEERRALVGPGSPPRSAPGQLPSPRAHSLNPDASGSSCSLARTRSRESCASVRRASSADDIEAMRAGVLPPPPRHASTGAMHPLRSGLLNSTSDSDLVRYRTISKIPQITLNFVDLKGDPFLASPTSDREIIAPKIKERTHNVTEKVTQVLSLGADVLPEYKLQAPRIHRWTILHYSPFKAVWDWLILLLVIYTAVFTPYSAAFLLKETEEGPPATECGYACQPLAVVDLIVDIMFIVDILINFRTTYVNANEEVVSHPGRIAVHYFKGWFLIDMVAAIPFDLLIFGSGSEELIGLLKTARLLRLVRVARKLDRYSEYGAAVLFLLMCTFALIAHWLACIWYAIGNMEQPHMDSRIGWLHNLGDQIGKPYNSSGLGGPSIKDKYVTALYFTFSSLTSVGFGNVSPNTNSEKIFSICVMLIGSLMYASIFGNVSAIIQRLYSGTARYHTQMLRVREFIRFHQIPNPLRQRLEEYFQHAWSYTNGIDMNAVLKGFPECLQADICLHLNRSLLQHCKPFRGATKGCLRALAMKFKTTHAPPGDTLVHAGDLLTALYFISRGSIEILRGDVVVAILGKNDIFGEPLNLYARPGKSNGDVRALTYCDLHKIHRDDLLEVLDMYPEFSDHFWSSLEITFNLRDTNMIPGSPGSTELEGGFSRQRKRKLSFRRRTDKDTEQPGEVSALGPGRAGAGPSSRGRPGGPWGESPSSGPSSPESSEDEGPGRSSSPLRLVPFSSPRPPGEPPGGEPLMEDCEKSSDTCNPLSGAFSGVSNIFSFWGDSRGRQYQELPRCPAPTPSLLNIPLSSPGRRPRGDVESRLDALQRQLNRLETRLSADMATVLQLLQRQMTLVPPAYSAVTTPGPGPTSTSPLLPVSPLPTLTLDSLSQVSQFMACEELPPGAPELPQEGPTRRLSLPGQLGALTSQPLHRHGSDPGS
# Method: Determination of the effect on the hERG channel in CHO cells
# An inhibition of the hERG (human Ether-a-go-go-Related Gene) potassium channel is unwanted because it can lead to dangerous arrhythmias. The effect of compounds of the formula I on the cloned human cardiac hERG channel was evaluated in an in vitro model using a whole-cell patch-clamping technique. CHO (Chinese hamster ovary) cells stably expressing hERG, the potassium channel underlying IKr currents in human hearts, were grown in HAM's F-12 media supplemented with 10 % fetal bovine serum, 1 x penicillin/streptomycin and 500 µg/ml G418 (Invitrogen, Carlsbad, CA, USA) in an atmosphere of 95 % air and 5 % carbon dioxide. Cells used for patch-clamping were seeded on glass or plastic coverslips 12 to 36 hours before use. hERG channel currents were recorded at room temperature using the whole-cell configuration of the patch clamp technique with an Axopatch 200B amplifier (Axon Instruments, Foster City, CA, USA). Briefly, electrodes (3 to 6 MΩ resistance) were fashioned from TW150F glass capillary tubes (World Precision Instruments, Sarasota, FL, USA) and filled with pipette solution (containing 120 mM potassium aspartate, 20 mM potassium chloride, 4 mM adenosine triphosphate disodium salt, 5 mM HEPES, 1 mM magnesium chloride; pH adjusted to 7.2 with potassium hydroxide). hERG currents were initiated by a positive voltage pulse (20 mV) followed by a negative pulse (-40 mV) and were recorded for off-line analyses. Once hERG current from a cell perfused with external solution (containing 130 mM sodium chloride, 5 mM potassium chloride, 2.8 mM sodium acetate, 1 mM magnesium chloride, 10 mM HEPES, 10 mM glucose, 1 mM calcium chloride; pH adjusted to 7.4 with sodium hydroxide) without the test compound, i.e. control solution, was stabilized, the cell was perfused with external solution containing the test compound at specific concentrations. For each concentration from each cell, peak amplitude of the steady-state hERG tail current at -40 mV was measured in picoAmpere (pA). The peak amplitude in pA for each concentration (up to a maximum concentration of 10 µM) was compared with that for the control solution from the same cell and expressed as percent value of the control. From the percent values at multiple concentrations, IC50 values for inhibition of hERG can be determined.
# [1] = system: atrium of the anesthetized pig; assay: Investigation of the refractory period and the left-atrial vulnerability in the anesthetized pig; format: in vivo; conditions: Sus scrofa, iv; for inhibition in vivo at 0.3 mg/kg / change in vivo at 0.3 mg/kg: 0.3 mg/kg i.v.
# Method: Investigation of the refractory period and the left-atrial vulnerability in the pig
# The compounds were tested for prolongation of the refractory period and antiarrhythmic activity on the atrium of the anesthetized pig as described in Knobloch K. et al., Naunyn-Schmiedeberg's Arch. Pharmacol. 2002, 366, 482-487. Here the anti-arrhythmic action relates to the inhibition of the occurrence of episodes of atrial arrhythmias which are induced by a prematurely placed extra-stimulus (S2) in the left atrium (= left-atrial vulnerability). The prolongation of the refractory period (refractoriness) is expressed as the increase in percent of the value of the refractory period 15 min after the end of administration of the test compound vs. the basal value before administration. Mean values of the prolongation of the refractory period are shown from three rates (150/min, 200/min and 250/min). The values for the inhibition of left atrial vulnerability (inhibition of episodes of arrhythmias) in percent refer to three measurements (three time points) before administration of the test compound vs. at least three measurements during the first hour after administration.
# In Table 16, the action of compounds of the formula I from the examples above on the refractory period of the left atrium and their antiarrhythmic activity in the anesthetized pig after intravenous (i.v.) administration of the described dose is shown.
# upper airway = assay: Effect on upper airway collapsibility in the anesthetized pig (negative pressure challenge); format: in vivo; conditions: negative pressure -150 mbar
# From the text: Effect on upper airway collapsibility in the pig Pharmacological efficacy against obstructive apneas was investigated in chloralose-urethane anesthetized pigs (weight range 20 to 35 kg), a large-animal model for obstructive apneas. Negative pressure generated by a negative pressure device was applied with a cannula to the upper part of the trachea for at least three breaths so that the upper airway was exposed to the negative pressure generated by the device. This caused an upper airway collapse as in an obstructive apnea in control animals treated with vehicle only, and in animals of the treatment group before the test compound was administered (baseline situation). Different levels of negative pressure were used to cause a collapse of the upper airway (-50 mbar, -100 mbar and -150 mbar). These negative pressure challenges were repeated several times before vehicle or test compound was given, and at regular intervals after administration of vehicle or test compound. Whether the upper airway was collapsed or open, was judged by airflow measurement and by the tracheal pressure in the cannula inserted into the upper trachea. In case the upper airway was collapsed by the negative pressure, airflow to the negative pressure device was close to zero. As a second parameter tracheal pressure approached the negative pressure generated by the device during upper airway collapse. Test compounds were administered by intravenous bolus injection. After administration of an effective test compound the upper airway was open during the negative pressure challenges, i.e. not collapsed, as indicated by airflow to the negative pressure device and the fact that tracheal pressure now approached atmospheric pressure in the inspiratory phase where upper airway muscles are activated. In vehicle-treated controls upper airway collapse occurred at every negative pressure challenge at -50 mbar, -100 mbar and -150 mbar. In Table 17, the time after administration of compounds of the formula I from the examples above is shown during which no upper airway collapse occurred (time of inhibition of collapsibility) at a negative pressure of -150 mbar. […]
# [2] = infusion over 1 h, first hour after administration vs. before
# [3] = 0.25 h, infusion over 1 h, 15 min after end of administration vs. basal value, mean of three rates (150/min, 200/min, 250/min), read-out: % Prolongation of left atrial refractory period
# [4] = 0.25 h, bolus injection, 15 min after end of administration vs. basal value, mean of three rates (150/min, 200/min, 250/min), read-out: % Prolongation of left atrial refractory period
# [5] = 1 h, bolus injection, first hour after administration vs. before
# [6] = 100 µg/kg intravenous bolus injection
structure (smiles),measurement,setting,value
"CC[C@@H](NC(=O)c1cc(C(=O)N2CCC[C@@H]2C)n2c1COCC2)c1ccccc1 [16a, 6-((S)-2-Methyl-pyrrolidine-1-carbonyl)-3,4-dihydro-1H-pyrrolo[2,1-c][1,4]oxazine-8-carboxylic acid ((R)-1-phenyl-propyl)-amide]",IC50,hERG channel,> 10 µM
same,inhibition in vivo at 0.3 mg/kg,[1]; [2],91%
same,change in vivo at 0.3 mg/kg,[1]; [3],40%
"CC[C@@H](NC(=O)c1cc(C(=O)N2CCC[C@@H]2C)n2c1COCC2)c1cnc(OC)c(Cl)c1 [16b, 6-((S)-2-Methyl-pyrrolidine-1-carbonyl)-3,4-dihydro-1H-pyrrolo[2,1-c][1,4]oxazine-8-carboxylic acid [(R)-1-(5-chloro-6-methoxy-pyridin-3-yl)-propyl]-amide]",IC50,hERG channel,> 10 µM
same,change in vivo at 0.3 mg/kg,[1]; [4],21%
same,inhibition in vivo at 0.3 mg/kg,[1]; [5],91%
"CC[C@@H](NC(=O)c1cc(C(=O)N2CCC[C@@H]2C)n2c1COCC2)c1ccc(C(F)(F)F)c(Cl)c1 [16c, 6-((S)-2-Methyl-pyrrolidine-1-carbonyl)-3,4-dihydro-1H-pyrrolo[2,1-c][1,4]oxazine-8-carboxylic acid [(R)-1-(3-chloro-4-trifluoromethyl-phenyl)-propyl]-amide]",IC50,hERG channel,> 10 µM
same,change in vivo at 0.03 mg/kg,"[1]; 0.25 h, 0.03 mg/kg i.v., bolus injection, 15 min after end of administration vs. basal value, mean of three rates (150/min, 200/min, 250/min), read-out: % Prolongation of left atrial refractory period",12%
same,inhibition in vivo at 0.03 mg/kg,"[1]; 1 h, 0.03 mg/kg i.v., bolus injection, first hour after administration vs. before",65%
"CC[C@@H](NC(=O)c1cc(C(=O)N2CCC[C@@H]2C)n2c1COCC2)c1ccc(Cl)c(Cl)c1 [16ci, 6-((S)-2-Methyl-pyrrolidine-1-carbonyl)-3,4-dihydro-1H-pyrrolo[2,1-c][1,4]oxazine-8-carboxylic acid [(R)-1-(3,4-dichloro-phenyl)-propyl]-amide]",IC50,hERG channel,~10 µM
"CC[C@@H](NC(=O)c1cc(C(=O)N2CCC[C@@H]2C)n2c1COCC2)c1ccc(C#N)c(Cl)c1 [16d, 6-((S)-2-Methyl-pyrrolidine-1-carbonyl)-3,4-dihydro-1H-pyrrolo[2,1-c][1,4]oxazine-8-carboxylic acid [(R)-1-(3-chloro-4-cyano-phenyl)-propyl]-amide]",IC50,hERG channel,> 10 µM
same,change in vivo at 0.3 mg/kg,[1]; [4],24%
same,inhibition in vivo at 0.3 mg/kg,[1]; [5],100%
"CC[C@@H](NC(=O)c1cc(C(=O)N2CCC[C@@H]2C)n2c1COCC2)c1ccc(C(F)(F)F)nc1 [16e, 6-((S)-2-methyl-pyrrolidine-1-carbonyl)-3,4-dihydro-1H-pyrrolo[2,1-c][1,4]oxazine-8-carboxylic acid [(R)-1-(6-trifluoromethyl-pyridin-3-yl)-propyl]-amide]",IC50,hERG channel,> 10 µM
same,inhibition in vivo at 0.3 mg/kg,[1]; [2],84%
same,change in vivo at 0.3 mg/kg,[1]; [3],38%
"CC[C@@H](NC(=O)c1cc(C(=O)N[C@H](C)c2ccc(F)cc2)n2c1COCC2)c1ccc(C(F)(F)F)cc1 [16eb, 3,4-Dihydro-1H-pyrrolo[2,1-c][1,4]oxazine-6,8-dicarboxylic acid 6-{[(R)-1-(4-fluoro-phenyl)-ethyl]-amide} 8-{[(R)-1-(4-trifluoromethyl-phenyl)-propyl]-amide}]",IC50,hERG channel,> 1 µM
"CC[C@@H](NC(=O)c1cc(C(=O)N2CCC[C@@H]2C)n2c1COCC2)c1ccc(C(F)(F)F)cc1 [16f, 6-((S)-2-Methyl-pyrrolidine-1-carbonyl)-3,4-dihydro-1H-pyrrolo[2,1-c][1,4]oxazine-8-carboxylic acid [(R)-1-(4-trifluoromethyl-phenyl)-propyl]-amide]",change in vivo at 1 mg/kg,"[1]; 0.25 h, 1.0 mg/kg i.v., bolus injection, 15 min after end of administration vs. basal value, mean of three rates (150/min, 200/min, 250/min), read-out: % Prolongation of left atrial refractory period",19%
same,inhibition in vivo at 1 mg/kg,"[1]; 1 h, 1.0 mg/kg i.v., bolus injection, first hour after administration vs. before",73%
"CC[C@@H](NC(=O)c1cc(C(=O)N[C@H](C)c2ccc(F)cc2)n2c1COCC2)c1ccc(C(F)(F)F)nc1 [16g, 3,4-Dihydro-1H-pyrrolo[2,1-c][1,4]oxazine-6,8-dicarboxylic acid 6-{[(R)-1-(4-fluorophenyl)-ethyl]-amide}8-{[(R)-1-(6-trifluoromethyl-pyridin-3-yl)-propyl]-amide}]",IC50,hERG channel,> 10 µM
"CC[C@@H](NC(=O)c1cc(C(=O)N[C@H](CC)c2ccccc2)n2c1COCC2)c1ccccc1 [16i, 3,4-Dihydro-1H-pyrrolo[2,1-c][1,4]oxazine-6,8-dicarboxylic acid bis-[((R)-1-phenylpropyl)-amide]]",IC50,hERG channel,> 10 µM
same,Time of inhibition of collapsibility (at -150 mbar),upper airway; 10 µg/kg intravenous bolus injection,for 90 min
"CC[C@@H](NC(=O)c1cc(C(=O)N[C@H](CC)c2ccc(OC)nc2)n2c1COCC2)c1ccccc1 [16j, 3,4-Dihydro-1H-pyrrolo[2,1-c][1,4]oxazine-6,8-dicarboxylic acid 6-{[(R)-1-(6-methoxy-pyridin-3-yl)-propyl]-amide}8-[((R)-1-phenyl-propyl)-amide]]",IC50,hERG channel,> 10 µM
same,Time of inhibition of collapsibility (at -150 mbar),upper airway; [6],for 120 min
"CCOC(=O)CNC(=O)c1cc(C(=O)N[C@H](CC)c2ccccc2)c2n1CCOC2 [16k, {[8-((R)-1-Phenyl-propylcarbamoyl)-3,4-dihydro-1H-pyrrolo[2,1-c][1,4]oxazine-6-carbonyl]-amino}-acetic acid ethyl ester]",IC50,hERG channel,> 10 µM
same,Time of inhibition of collapsibility (at -150 mbar),upper airway; [6],for >240 min
"CCOC(=O)[C@H](C)N(C)C(=O)c1cc(C(=O)N[C@H](CC)c2ccccc2)c2n1CCOC2 [16l, (S)-2-{Methyl-[8-((R)-1-phenyl-propylcarbamoyl)-3,4-dihydro-1H-pyrrolo[2,1-c][1,4]oxazine-6-carbonyl]-amino}-propionic acid ethyl ester]",IC50,hERG channel,> 10 µM
same,Time of inhibition of collapsibility (at -150 mbar),upper airway; [6],for >120 min
"CC[C@@H](NC(=O)c1cc(C(=O)N2CCC[C@@H]2C(F)(F)F)n2c1COCC2)c1ccc(C(F)(F)F)nc1 [16o, 6-((R)-2-Trifluoromethyl-pyrrolidine-1-carbonyl)-3,4-dihydro-1H-pyrrolo[2,1-c][1,4]oxazine-8-carboxylic acid [(R)-1-(6-trifluoromethyl-pyridin-3-yl)-propyl]-amide]",change in vivo at 0.3 mg/kg,[1]; [4],45%
same,inhibition in vivo at 0.3 mg/kg,[1]; [5],71%
